In paper PMC8778022, “Synthesis and Biological Activity of 3-(Heteroaryl)quinolin-2(1H)-ones Bis-Heterocycles as Potential Inhibitors of the Protein Folding Machinery Hsp90” (Molecules, 2022):
“Also recorded” adds a separate entry of the source. Like-named read-outs stand apart in the source and are kept apart here.

Experiments:
MDA-MB-231 cells = assay: MTS cell viability assay, MDA-MB-231 cells, 72 h; type: cell-based, human; conditions: % of viable cells compared to untreated cells 100%; for viability at 10 µM / viability at 25 µM / viability at 15 µM: Homo sapiens, MDA-MB-231, 72 h
Protocol: (§1) Upon completion of their syntheses, the in vitro activity of quinolone derivatives 3a–f, 4a–h, and 5a,b was evaluated by their growth-inhibitory potency in three cancer cell lines. At first, the viability of the synthesized compounds was examined with the MDA-MB-231 […] breast cancer cell line at concentrations of 10 µM, 15 µM, and 25 µM. Prostate cancer PC-3 cells and human fetal lung fibroblast MRC-5 cell lines were also subjected to this series of compounds at a unique concentration of 15 µM.
(§2) MDA-MB-231 cells were grown in L15 supplemented with 15% serum, 2 mM glutamine, and 22 mM sodium bicarbonate in the presence of Penicillin/Streptomycin antibiotic mixture. PC-3 cells were cultured in RPMI 1640 supplemented with 10% serum and 2 mM glutamine in the presence of Penicillin/Streptomycin antibiotic mixture. MRC-5 cells were cultured in EMEM supplemented with 10% serum and 2 mM glutamine in the presence of Penicillin/Streptomycin antibiotic mixture (Reagents were purchased from Sigma Aldrich, Saint-Quentin-Fallavier, France).
(§3) Cells were treated for 72 h with 10, 15, and 25 µM of the selected substances. Control cells were treated with the equivalent in DMSO.
(§4) Cell survival was assessed using the CellTiter Aqueous One Proliferation assay (Promega, Charbonnières-les-Bains, France) whereby 2500 or 5000 cells per well were seeded in 96-well plates in 100 µL. At the end of the treatment, 20 µL of reagent was added, and absorbance readings were taken at 492 nm on a 96-well plate reader after 3 h of contact (on average).

PC-3 cells = assay: MTS cell viability / growth inhibition assay, PC-3 cells, 72 h; type: cell-based, human; conditions: for GI50: PC-3, concentration needed to reduce cell growth by 50%, 72 h treatment, estimated, read-out: GI50 anti-proliferative effect PC-3; for viability at 15 µM: PC-3, 72 h; for viability at 15 µM / Cell viability [%] PC-3 (15 µM): 72 h, MTS, % of viable cells compared to untreated cells 100%
Protocol: as §1
Then, the growth inhibitory activities against PC-3 prostate cancer cell line were measured for the selected 3-heteroaryl-quinolin-2(1H)-one derivatives 3a–e.
as §2, §3, §4

CDK-4 = assay: Western blot of Hsp90 client protein CDK-4 in PC-3 cells; type: cell-based, human; conditions: for CDK-4 client protein level (Western blot): PC-3 cells, 15 µM, 72 h; for CDK-4 client protein level: as printed in abstract and conclusions
Protocol: (§5) For protein expression analysis, cells were seeded at a rate of 0.75 × 10^6 cells on a 25 cm^2 surface. At the end of the treatment the cells were washed and lysed with RIPA buffer (Sigma Aldrich, Saint-Quentin-Fallavier, France city, country) to which protease inhibitors (Sigma Aldrich, Saint-Quentin-Fallavier, France SIGMA) were added. After 30 min of lysis on ice, the samples were centrifuged (3500 rpm, 10 min) and stored at −20 °C. Total protein concentration was obtained using the Bio-rad Protein Assay reagent (Bio-Rad Laboratories, Marnes-la-Coquette, France city, country). […] Immunorevelation was performed as follows: 1 h saturation of the membrane with TBS-Tween (0.1%)–5% skim milk followed by overnight incubation in primary antibody solution (antibodies were from Santa Cruz Biotechnologies, Clinisciences, Nanterre, France or from Sigma Aldrich, Saint-Quentin-Fallavier, France)(See Table 3). After 1 h of washing in 0.1% TBS-Tween, the membranes were contacted with the second horseradish peroxidase-coupled antibody. Detection of the chemiluminescence signal (SuperSignal Pierce reagent, Fisher Scientific, Illkirch, France) was performed using the ChemiBis gel Imager (DNR Bio-Imaging Systems, Israel).
(§6) Figure 2 Effects of quinolone analogues 3a–e, 4e and 5b on HSP90 machinery protein levels and on CDK-4 stability. PC-3 cells were grown and exposed to Hsp90 inhibitors (3a–e, 4e and 5b, 15 µM) as described in Experimental section for 72 h and cell lysates were analyzed by Western blotting with regard to the levels of CDK-4, Hsp90α/β and Hsp70. NT corresponds to untreated cells; D, DMSO-treated cells were used as controls, GADPH level is used for control in protein loading on gels.

Hsp90α/β = assay: Western blot of Hsp90 level in PC-3 cells; type: cell-based, human; conditions: 15 µM, 72 h, without triggering the HSR
Protocol: as §5, §6

Hsp70 = assay: Western blot of Hsp70 level in PC-3 cells; type: cell-based, human; conditions: 15 µM, 72 h, without triggering the HSR
Protocol: as §5, §6

[1] = MTS cell viability assay, MRC-5 cells, 72 h; type: cell-based, human; conditions: human, MRC-5 fetal lung fibroblast cells, % of viable cells compared to untreated cells 100%
Protocol: as §1, §2, §3, §4

SkBr3 cell lines = conditions: cited from earlier work
[2] = tested on: human fetal lung fibroblast MRC-5; assay: MTS cell viability assay, MRC-5 cells, 72 h; type: cell-based; conditions: % of viable cells compared to untreated cells 100%
Protocol: as §1, §2, §3, §4

MCF7 = conditions: Figure 1; cited from earlier work

Row | SMILES | viability at 10 µM (MDA-MB-231 cells; 10 µM) | viability at 25 µM (MDA-MB-231 cells; 25 µM) | viability at 15 µM (PC-3 cells; Homo sapiens) | viability at 72 h, 15 µM [1] | viability at 15 µM (MDA-MB-231 cells) | other results
1 | O=c1c(-c2nc3ccccc3n2Cc2ccccc2)cc2ccccc2n1Cc1ccccc1 [3a] | < 47% | ~30% |  |  |  | GI50 (PC-3 cells; Homo sapiens): 48 µM
2 | COc1ccc(Cn2c(-c3cc4ccccc4n(C)c3=O)nc3cc(C)c(C)cc32)cc1 [3b] |  | ~30% | ≥ 56% |  |  | GI50 (PC-3 cells; Homo sapiens): 28 µM; IC50 (PC-3 cells; Homo sapiens, as printed in abstract and b26, refers to Table 2 (PC-3, 72 h), read-out: IC50 anti-proliferative activity): 28 µM; CDK-4 client protein level (Western blot) (CDK-4): more decreased; CDK-4 client protein level (CDK-4): significant decrease; Hsp90 level (heat shock response) (Hsp90α/β): stabilize; Hsp70 level (heat shock response) (Hsp70): stabilize
3 | Cn1c(=O)c(-c2nc3ccccc3s2)cc2ccccc21 [3c] |  |  |  |  |  | GI50 (PC-3 cells; Homo sapiens): 37 µM
4 | CSc1ncnc2c1nc(-c1cc3ccccc3n(C)c1=O)n2Cc1ccccc1 [3e, 3-(6-Methylthiopurine)-2-quinolone] |  |  | ≥ 56% |  |  | GI50 (PC-3 cells; Homo sapiens): 38 µM
5 | COc1cc(-c2ncnc3c2nc(-c2cc4ccccc4n(C)c2=O)n3Cc2ccccc2)cc(OC)c1OC [4d, 3-[9-benzyl-6-(3,4,5-trimethoxyphenyl)-9H-purin-8-yl]-1-methylquinolin-2(1H)-one] |  |  |  | 71 to 79% |  | 
6 | Cc1cc(C)cc(-c2ncnc3c2nc(-c2cc4ccccc4n(C)c2=O)n3Cc2ccccc2)c1 [4e, 3-[9-benzyl-6-(3,5-dimethylphenyl)-9H-purin-8-yl]-1-methylquinolin-2(1H)-one] |  |  | ≥ 56% | 71 to 79% |  | CDK-4 client protein level (Western blot) (CDK-4): degraded; also recorded: more decreased; CDK-4 client protein level (CDK-4): significant decrease; Hsp90 level (heat shock response) (Hsp90α/β): stabilize; Hsp70 level (heat shock response) (Hsp70): stabilize
7 | Cn1c(=O)c(-c2nc3c(-c4ccc(F)cc4)ncnc3n2Cc2ccccc2)cc2ccccc21 [4h, 3-[9-benzyl-6-(4-fluorophenyl)-9H-purin-8-yl]-1-methylquinolin-2(1H)-one] |  | ~30% |  |  |  | 
8 | COc1ccc(Nc2ncnc3c2nc(-c2cc4ccccc4n(C)c2=O)n3Cc2ccccc2)cc1 [5a, 3-{9-benzyl-6-[(4-methoxyphenyl)amino]-9H-purin-8-yl}-1-methylquinolin-2(1H)-one] | < 47% |  |  |  |  | 
9 | COc1cc(Nc2ncnc3c2nc(-c2cc4ccccc4n(C)c2=O)n3Cc2ccccc2)cc(OC)c1OC [5b, 3-{9-benzyl-6-[(3,4,5-trimethoxyphenyl)amino]-9H-purin-8-yl}-1-methylquinolin-2(1H)-one] |  |  |  |  |  | CDK-4 client protein level (Western blot) (CDK-4): degraded; Hsp90 level (heat shock response) (Hsp90α/β): stabilize; Hsp70 level (heat shock response) (Hsp70): stabilize
10 | CN1CCC(Oc2ccc3cc(-c4cc5ccccc5s4)c(=O)oc3c2)CC1 [(I)] |  |  |  |  |  | IC50 (SkBr3 cell lines; cell death, SkBr3): 980 nM
11 | O=c1c(-c2nc3ccccc3n2Cc2ccccc2)cc2ccccc2n1Cc1ccccc1 [C00001] |  |  | 70% | 80% | 47% | Cell viability [%] MDA-MB-231 (MDA-MB-231 cells; 25 µM): 36%
12 | COc1ccc(Cn2c(-c3cc4ccccc4n(C)c3=O)nc3cc(C)c(C)cc32)cc1 [C00002] | 60% |  |  | 95% | 60% | Cell viability [%] MDA-MB-231 (MDA-MB-231 cells; 25 µM): 23%; Cell viability [%] PC-3 (15 µM) (PC-3 cells): 61%
13 | Cn1c(=O)c(-c2nc3ccccc3s2)cc2ccccc21 [C00003] | 55% | 65% | 61% | 88% | 72% | 
14 | Cn1c(=O)c(-c2nc3ccccc3o2)cc2ccccc21 [C00004] | 98% | 98% |  |  | 98% | 
15 | CSc1ncnc2c1nc(-c1cc3ccccc3n(C)c1=O)n2Cc1ccccc1 [C00005] | 73% | 50% |  | 88% | 70% | Cell viability [%] PC-3 (15 µM) (PC-3 cells): 61%
16 | Cn1c(=O)c(-c2cc3ccccc3s2)cc2ccccc21 [C00006] | 98% |  |  |  |  | 
17 | COc1ccc(-c2ncnc3c2nc(-c2cc4ccccc4n(C)c2=O)n3Cc2ccccc2)cc1 [C00007] | 66% | 87% | 73% | 94% | 81% | 
18 | COc1cccc(-c2ncnc3c2nc(-c2cc4ccccc4n(C)c2=O)n3Cc2ccccc2)c1 [C00008] | 70% | 61% | 106% | 92% | 69% | 
19 | Cn1c(=O)c(-c2nc3c(-c4ccccc4)ncnc3n2Cc2ccccc2)cc2ccccc21 [C00009] | 71% | 35% | 97% | 82% | 62% | 
20 | COc1cc(-c2ncnc3c2nc(-c2cc4ccccc4n(C)c2=O)n3Cc2ccccc2)cc(OC)c1OC [C00010] | 60% | 55% | 89% |  | 47% | 
21 | Cc1cc(C)cc(-c2ncnc3c2nc(-c2cc4ccccc4n(C)c2=O)n3Cc2ccccc2)c1 [C00011] | 57% | 50% |  |  | 62% | Cell viability [%] PC-3 (15 µM) (PC-3 cells): 56%; Cell viability [%] MRC-5 (15 µM) [2]: 71%
22 | Cn1c(=O)c(-c2nc3c(-c4cccc5ccccc45)ncnc3n2Cc2ccccc2)cc2ccccc21 [C00012] | 73% | 92% | 88% | 98% | 81% | 
23 | Cn1c(=O)c(-c2nc3c(-c4ccc(Cl)cc4)ncnc3n2Cc2ccccc2)cc2ccccc21 [C00013] | 56% |  | 91% |  | 57% | Cell viability [%] MDA-MB-231 (MDA-MB-231 cells; 25 µM): 27%; Cell viability [%] MRC-5 (15 µM) [2]: 79%
24 | Cn1c(=O)c(-c2nc3c(-c4ccc(F)cc4)ncnc3n2Cc2ccccc2)cc2ccccc21 [C00014] | 55% |  | 97% | 84% | 42% | Cell viability [%] MDA-MB-231 (MDA-MB-231 cells; 25 µM): 17%
25 | COc1ccc(Nc2ncnc3c2nc(-c2cc4ccccc4n(C)c2=O)n3Cc2ccccc2)cc1 [C00015] |  | 69% | 87% | 91% | 63% | Cell viability [%] MDA-MB-231 (MDA-MB-231 cells; 10 µM): 62%
26 | COc1cc(Nc2ncnc3c2nc(-c2cc4ccccc4n(C)c2=O)n3Cc2ccccc2)cc(OC)c1OC [C00016] | 44% | 61% | 88% | 81% | 55% | 
27 | COc1ccc(C(=O)Nc2cc3cc(Br)ccc3n(C)c2=O)cc1 [C00017, reference compound] | 76% |  |  |  |  | 
28 | CO[C@@H]1[C@@H](OC(N)=O)[C@@H](O)[C@H](Oc2ccc3c(O)c(NC(=O)c4ccc(O)c(CC=C(C)C)c4)c(=O)oc3c2C)OC1(C)C [Novobiocin, novobiocin] |  |  |  |  |  | IC50 (MCF7): 260 µM
29 | CC(C)NCCCn1c(Sc2cc3c(cc2I)OCO3)nc2c(N)ncnc21 [PU-H] |  |  |  |  |  | IC50 (SkBr3 cell lines; Figure 1): 50 to 90 nM
